Results on eight compounds are retold here after patent publication US6242476A, “Leukotriene A4 hydrolase inhibitors” (Santen Pharmaceutical Co., Ltd., priority 1997, dated 2001).

The structures appear in SMILES notation.

This test concerns the target T1, LTA4 hydrolase (Cavia porcellus, UniProt P19602).
T1 construct: prepared by extracting from guinea pig lung without purification; from tissue; host or cells: lung of Hartley guinea pig
T1 sequence (P19602 1-611): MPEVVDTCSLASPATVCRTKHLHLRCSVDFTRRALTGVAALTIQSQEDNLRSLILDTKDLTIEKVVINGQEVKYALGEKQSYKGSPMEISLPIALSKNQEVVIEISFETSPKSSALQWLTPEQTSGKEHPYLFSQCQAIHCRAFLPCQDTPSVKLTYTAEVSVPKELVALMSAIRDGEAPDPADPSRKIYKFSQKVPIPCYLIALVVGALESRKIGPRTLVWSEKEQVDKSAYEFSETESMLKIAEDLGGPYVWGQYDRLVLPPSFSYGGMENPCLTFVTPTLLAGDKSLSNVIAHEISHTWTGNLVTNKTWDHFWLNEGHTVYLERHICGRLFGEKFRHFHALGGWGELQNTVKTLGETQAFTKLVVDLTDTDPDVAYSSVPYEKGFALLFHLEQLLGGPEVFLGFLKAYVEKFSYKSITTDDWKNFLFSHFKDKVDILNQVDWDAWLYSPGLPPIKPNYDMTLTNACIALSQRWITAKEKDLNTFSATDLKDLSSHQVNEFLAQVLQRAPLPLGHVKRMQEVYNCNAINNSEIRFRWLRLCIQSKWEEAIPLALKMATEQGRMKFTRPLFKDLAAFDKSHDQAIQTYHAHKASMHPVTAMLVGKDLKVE
Description: Inhibition of LTA4 hydrolase: LTB4 produced from LTA4 by enzyme preparation from guinea pig lung (HPLC). The following applies: guinea pig lung enzyme preparation 0.4-0.6 mg protein; HEPES 50 mM, pH 7.8; LTA4 63 μM; DTT 3 mM; 37° C., one minute; read-out: IC50 (concentration of the compounds required to inhibit LTA4 hydrolase activity by 50%). It is filed as biochemical. How it is done: Izumi et al. had reported a method of measuring LTA4 hydrolase activity by measuring an amount of LTB4 produced by an enzymatic reaction using LTA4 as a substrate (Biochem. Biophys. Res. Commun., 135, 139-145 (1986)). Effects of the present compounds on LTA4 hydrolase were examined according to the method described in the literature.
An enzyme preparation used in this pharmacological test was prepared by extracting from guinea pig lung without purification according to the method of Izumi et al. (Biochem. Biophys. Res. Commun., 135, 139-145 (1986)) and the method of Evans et al. (Biochem. Biophys. Acta, 840, 43-50 (1985)). The experimental method is as follows:
Lungs were excised from a Hartley guinea pig (body weight: 330 g). The lungs were homogenized in phosphoric acid buffer (50 mM, pH 7.4, containing 1 mM ethylenediaminetetraacetic acid (EDTA) and 1 mM dithiothreitol (DTT) having weight three times that of the lungs under ice-cooling. The homogenate was centrifuged at low speed (800×g) for 20 minutes, centrifuged at high speed (10,000×g) for 20 minutes and ultracentrifuged (100,000×g) for 60 minutes to give a supernatant. The supernatant was brought to 40% saturation by adding a saturated aqueous ammonium sulfate solution (pH 7.0-7.2, containing 1 mM DTT) dropwise under ice-cooling and centrifuged at high speed (10,000×g) for 20 minutes. The resulting supernatant was brought to 70% saturation by adding a saturated aqueous ammonium sulfate solution (pH 7.0-7.2, containing 1 mM DTT) dropwise and centrifuged at high speed (10,000×g) for 20 minutes. The obtained pellet was dissolved in 2 ml of Tris-acetic acid buffer (20 mM, pH 7.8, containing 1 mM DTT) and dialyzed in 2 liters of the solution to give the enzyme preparation.
LTA4 used, which is the substrate, was prepared by hydrolyzing LTA4 methyl ester and dissolved in ethanol.
In order to examine effects of the test compounds on the enzyme preparation, reactions were performed under the following condition using mixed solutions consisting of the composition shown in Table 1. […]
HEPES buffer 50 mM, pH 7.8
Enzyme preparation 0.4-0.6 mg protein
DTT aqueous solution 3 mM
Test compounds 10^-8 -10^-3 M
The above-mentioned solution (50 μl) was incubated at 37° C. for one minute. To the reaction mixture was added 100 μl of a mixed liquid of acetonitrile-ethanol-acetic acid (150:50:3, volume ratio) under ice-cooling. The mixture was allowed to stand at -20° C. for 30 minutes and centrifuged at high speed (10,000×g) for five minutes to give a supernatant. An amount of LTB4 produced in the supernatant was measured by high-speed liquid chromatography.
The degree of the inhibitory effect of each test compound on LTA4 hydrolase is expressed by the inhibition rate calculated by the following equation. [formula]
A: amount of LTB4 formed in the absence of the test compound
B: amount of LTB4 formed in the presence of the test compound
The results are represented in concentration of the compounds required to inhibit LTA4 hydrolase activity by 50%, i.e., IC50.

As to `Cc1ccccc1CS[C@H]1C[C@@H](C(=O)O)N(C(=O)[C@H](C)CS)C1` [Compound a, 1-[(2S)-3-mercapto-2-methylpropionyl]-(4S)-4-(2-methylbenzylthio)-L-proline], the IC50 amounted to 840 nM.
With `CSc1ccc(CS[C@H]2C[C@@H](C(=O)O)N(C(=O)[C@H](C)CS)C2)cc1` [Compound g, 1-[(2S)-3-mercapto-2-methylpropionyl]-(4S)-4-[4-(methylthio)benzylthio]-L-proline], the IC50 was found to be 120 nM.
Regarding `CCCCc1ccc(CS[C@H]2C[C@@H](C(=O)O)N(C(=O)[C@H](C)CS)C2)cc1` [Compound f, (4S)-4-(4-butylbenzylthio)-1-[(2S)-3-mercapto-2-methylpropionyl]-L-proline], the IC50 is 31 nM.
Consider `CC(C)c1ccc(CS[C@H]2C[C@@H](C(=O)O)N(C(=O)[C@H](C)CS)C2)cc1` [Compound b, (4S)-4-(4-isopropylbenzylthio)-1-[(2S)-3-mercapto-2-methylpropionyl]-L-proline], for which the IC50 is 52 nM.
Under `CC(C)c1ccc(CO[C@@H]2C[C@@H](C(=O)O)N(C(=O)[C@H](C)CS)C2)cc1` [Compound e, (4R)-4-(4-isopropylbenzyloxy)-1-[(2S)-3-mercapto-2-methylpropionyl]-L-proline] stands 800 nM; under `CC(C)c1ccc(CS[C@@H]2C[C@@H](C(=O)O)N(C(=O)[C@H](C)CS)C2)cc1` [Compound d, (4R)-4-(4-isopropylbenzylthio)-1-[(2S)-3-mercapto-2-methylpropionyl]-L-proline], 290 nM; under `CC(C)c1ccc(CCS[C@H]2C[C@@H](C(=O)O)N(C(=O)[C@H](C)CS)C2)cc1` [Compound c, (4S)-4-(4-isopropylphenyethylthio)-1-[(2S)-3-mercapto-2-methylpropionyl]-L-proline], 790 nM.
Under `C[C@H](CS)C(=O)N1C[C@@H](SCc2ccc(C3CCCCC3)cc2)C[C@H]1C(=O)O` [Compound h, (4S)-4-(4-cyclohexylbenzylthio)-1-[(2S)-3-mercapto-2-methylpropionyl]-L-proline] stands 34 nM.
